The supplement of paper PMC10331698
± gives the standard deviation of the averaged measurements.

Columns and labels:
Test in all cases: level (log10 ratio to DMSO vehicle control); higher = higher biomarker level / cell amount than vehicle control
Conditions in all cases: in DMSO
[1] = compound: O=S(=O)(O)C(F)(F)C(F)(F)C(F)(F)C(F)(F)C(F)(F)C(F)(F)C(F)(F)C(F)(F)C(F)(F)C(F)(F)F [Sodium perfluorodecanesulfonate]
Protocol: (§1)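 BioMAP Diversity Plus panel of 12 human primary cell co-culture systems (3C, 4H, LPS, SAg, BT, BF4T, BE3C, CASM3C, HDF3CGF, KF3CT, MyoF, Mphg). Compounds were added 1 h before stimulation and left for 24 h (MyoF 48 h; BT 72 h for soluble read-outs or 6 d for IgG). Biomarkers were read by ELISA, cytotoxicity by SRB, PBMC viability and proliferation by Alamar Blue. Each well value was divided by the mean of 8 DMSO control wells on the same plate and log10 transformed; duplicate blinded samples were tested at 4 concentrations.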

[2] = compound: O=C(O)C(F)(F)C(F)(F)C(F)(F)C(F)(F)C(F)(F)C(F)(F)C(F)(F)C(F)(F)C(F)(F)C(F)F [11-H-Perfluoroundecanoic acid]
Protocol: as §1

[3] = compound: FC(F)(F)C(F)(F)CNCC(F)(F)C(F)(F)F [Bis(1H,1H-perfluoropropyl)amine]
Protocol: as §1

[4] = compound: COC(=O)C(F)(F)C(F)(F)OC(F)(C(F)(F)F)C(F)(F)OC(F)=C(F)F [Methyl perfluoro(3-(1-ethenyloxypropan-2-yloxy)propanoate)]
Protocol: as §1

[5] = compound: O=S(=O)(F)C(F)(F)C(F)(F)C(F)(F)C(F)(F)C(F)(F)C(F)(F)C(F)(F)C(F)(F)F [Perfluorooctanesulfonyl fluoride]
Protocol: as §1

[6] = compound: C=C(C)C(=O)OCCC(F)(F)C(F)(F)C(F)(F)C(F)(F)C(F)(F)C(F)(F)F [6:2 Fluorotelomer methacrylate]
Protocol: as §1

[7] = compound: NC(=O)C(F)(F)C(F)(F)C(F)(F)C(F)F
Protocol: as §1

Test System	level (log10) ([1]; 1500 nM)	level (log10) ([1]; 4400 nM)	level (log10) ([1]; 13000 nM)	level (log10) ([1]; 40000 nM)	level (log10) ([2]; 6700 nM)	level (log10) ([2]; 20000 nM)	level (log10) ([3]; 6700 nM)	level (log10) ([3]; 20000 nM)	level (log10) ([3]; 60000 nM)	level (log10) ([4]; 6700 nM)	level (log10) ([4]; 20000 nM)	level (log10) ([5]; 6700 nM)	level (log10) ([5]; 20000 nM)	level (log10) ([5]; 60000 nM)	level (log10) ([6]; 6700 nM)	level (log10) ([6]; 20000 nM)	level (log10) ([6]; 60000 nM)	level (log10) ([7]; 6700 nM)	level (log10) ([7]; 20000 nM)	level (log10) ([7]; 60000 nM)
BE3C:CD54/ICAM-1	0.0015 ± 0.029	-0.0075 ± 0.00071	0.034	0.0425 ± 0.011	-0.0105 ± 0.0021	-0.35 ± 0.031	-0.012 ± 0.0085	-0.008 ± 0.0099	0.0085 ± 0.044	-0.0205 ± 0.005	-0.017 ± 0.0014	-0.0035 ± 0.019	-0.0055 ± 0.0092	0.0045 ± 0.026	-0.0055 ± 0.0064	-0.0085 ± 0.011	0.015 ± 0.0099	-0.006 ± 0.0042	-0.002 ± 0.0042	0.0155 ± 0.016
BE3C:CD87/uPAR	0.029 ± 0.011	0.066 ± 0.02	0.005 ± 0.0014	-0.179 ± 0.011	0.0235 ± 0.026	-0.264 ± 0.019	-0.0335 ± 0.049	-0.0475 ± 0.06	-0.012 ± 0.018	0.038 ± 0.038	0.05 ± 0.041	-0.0005 ± 0.011	0.0155 ± 0.00071	0.0375 ± 0.0064	-0.047 ± 0.027	-0.0335 ± 0.019	-0.0305 ± 0.028	-0.02 ± 0.011	-0.0205 ± 0.0035	-0.0145 ± 0.015
BE3C:CXCL8/IL-8	0.0135 ± 0.0035	0.0345 ± 0.0021	0.083 ± 0.021	0.0225 ± 0.037	-0.0885 ± 0.016	0.0475 ± 0.05	-0.041 ± 0.073	-0.0325 ± 0.036	-0.008 ± 0.03	0.0495 ± 0.0021	0.09 ± 0.013	0.0175 ± 0.0021	0.0295 ± 0.011	0.0615 ± 0.029	0.05 ± 0.086	0.0325 ± 0.046	0.043 ± 0.072	0.025 ± 0.035	0.0405 ± 0.0078	0.0565 ± 0.04
BE3C:CXCL9/MIG	0.016 ± 0.0042	0.008 ± 0.0085	0.014 ± 0.0085	0.0005 ± 0.0092	-0.004 ± 0.0057	-0.905 ± 0.047	-0.0065 ± 0.0035	-0.0055 ± 0.00071	0.005 ± 0.021	-0.0035 ± 0.0035	-0.019 ± 0.0099	0.0035 ± 0.005	-0.0025 ± 0.0064	0.007 ± 0.017	0.0055 ± 0.028	0.008 ± 0.035	0.015 ± 0.045	0.012 ± 0.024	0.009 ± 0.0071	0.006 ± 0.0085
BE3C:CXCL11/I-TAC	0.0095 ± 0.005	0.0075 ± 0.0064	0.0185 ± 0.005	-0.0685 ± 0.036	-0.04 ± 0.0057	-0.826 ± 0.0085	-0.026 ± 0.013	-0.0135 ± 0.016	0.008 ± 0.016	-0.038 ± 0.024	-0.192 ± 0.025	0.005 ± 0.0014	-0.0005 ± 0.012	-0.006 ± 0.011	0.0125 ± 0.023	0 ± 0.014	0.0155 ± 0.028	0.005 ± 0.0028	-0.002 ± 0.0042	0.002 ± 0.0057
BE3C:EGFR	0.0185 ± 0.0035	0.0015 ± 0.0064	-0.022 ± 0.014	-0.032 ± 0.027	-0.0125 ± 0.021	-0.12 ± 0.0057	-0.011 ± 0.014	-0.008 ± 0.0057	0.0065 ± 0.021	-0.04 ± 0.014	-0.053 ± 0.031	0.0125 ± 0.0064	0.017 ± 0.025	-0.0095 ± 0.012	0.0045 ± 0.052	0.0085 ± 0.043	0.0135 ± 0.049	0.0055 ± 0.019	0.0065 ± 0.032	-0.008 ± 0.0099
BE3C:HLA-DR	0.0005 ± 0.013	-0.02 ± 0.014	-0.0755 ± 0.032	-0.406 ± 0.041	-0.0645 ± 0.005	-0.669 ± 0.0085	-0.0025 ± 0.012	-0.0115 ± 0.0021	0.012 ± 0.031	-0.0235 ± 0.042	-0.0275 ± 0.032	-0.0105 ± 0.012	-0.0125 ± 0.011	-0.01 ± 0.011	0.0015 ± 0.016	-0.0065 ± 0.0064	0.0125 ± 0.005	0.0065 ± 0.016	0.008 ± 0.0057	-0.0025 ± 0.023
BE3C:IL-1alpha	-0.007 ± 0.0085	0.007 ± 0.023	-0.0495 ± 0.0078	-0.149 ± 0.0092	0.0285 ± 0.016	-0.42 ± 0.011	0.0045 ± 0.022	0.0005 ± 0.018	0.007 ± 0.018	-0.0175 ± 0.005	-0.005 ± 0.011	0.004 ± 0.0042	-0.0115 ± 0.013	-0.007 ± 0.016	0.0025 ± 0.016	-0.0125 ± 0.0035	0.003	0.0235 ± 0.016	-0.008 ± 0.0085	0.015 ± 0.065
BF4T:CCL2/MCP-1	0.0015 ± 0.011	0.008 ± 0.018	0.0125 ± 0.043	0.051 ± 0.0042	-0.162 ± 0.02	-0.2635 ± 0.0021	-0.004 ± 0.014	-0.009 ± 0.027	-0.0295 ± 0.015	0.041 ± 0.033	-0.152 ± 0.32	0.006 ± 0.0071	-0.0425 ± 0.0064	-0.0055 ± 0.037	0.0165 ± 0.005	-0.012 ± 0.014	0.002 ± 0.021	0.008 ± 0.0042	-0.0135 ± 0.0092	0.0165 ± 0.047
BF4T:CCL26/Eotaxin-3	-0.0815 ± 0.026	-0.131 ± 0.0078	-0.23 ± 0.066	-0.298 ± 0.013	-0.122 ± 0.014	-0.234 ± 0.018	-0.0275 ± 0.026	-0.0245 ± 0.0021	-0.0055 ± 0.053	-0.007	-0.069 ± 0.014	-0.0265 ± 0.021	0.0035 ± 0.016	-0.014 ± 0.016	0.0285 ± 0.025	-0.001 ± 0.11	0.041 ± 0.055	-0.001 ± 0.0085	-0.012 ± 0.033	0.0005 ± 0.018
BF4T:CD90	-0.0085 ± 0.012	-0.0055 ± 0.005	-0.0065 ± 0.0035	0.002 ± 0.0057	-0.0485 ± 0.028	-0.0995 ± 0.029	-0.01 ± 0.0085	-0.004 ± 0.0071	0.011 ± 0.018	-0.004 ± 0.017	-0.0045 ± 0.0078	-0.0065 ± 0.0078	-0.014 ± 0.0057	0.0065 ± 0.0021	-0.004 ± 0.0057	-0.007 ± 0.0057	-0.0065 ± 0.0021	-0.002 ± 0.0085	-0.0125 ± 0.0092	0.001 ± 0.0028
BF4T:CD106/VCAM-1	-0.0095 ± 0.021	-0.0125 ± 0.069	-0.096 ± 0.035	-0.106 ± 0.028	-0.062 ± 0.0057	-0.148 ± 0.079	-0.034 ± 0.0057	-0.034 ± 0.017	0.008 ± 0.069	-0.007 ± 0.071	-0.091 ± 0.025	-0.007	-0.0355 ± 0.0021	-0.044 ± 0.031	0.008 ± 0.079	0.039	-0.0215 ± 0.028	-0.015 ± 0.0028	-0.014 ± 0.0042	-0.003 ± 0.023
BF4T:CXCL8/IL-8	0.0305 ± 0.069	0.034 ± 0.0099	0.0995 ± 0.021	0.136 ± 0.0057	0.0575 ± 0.019	0.0005 ± 0.026	-0.0295 ± 0.013	-0.027 ± 0.0028	-0.0105 ± 0.021	0.0395 ± 0.016	0.095 ± 0.0099	0.0175 ± 0.011	0.015 ± 0.0028	0.0355 ± 0.005	0.032 ± 0.061	0.028 ± 0.037	0.0435 ± 0.033	0 ± 0.0071	-0.0105 ± 0.005	-0.009 ± 0.0071
BF4T:IL-1alpha	0.037 ± 0.034	-0.0165 ± 0.033	0.0095 ± 0.011	-0.0155 ± 0.0064	0.025 ± 0.027	-0.0955 ± 0.026	-0.007 ± 0.014	-0.0135 ± 0.015	0.0105 ± 0.049	-0.002 ± 0.0014	0.0105 ± 0.023	-0.0005 ± 0.0064	-0.0015 ± 0.00071	0.0155 ± 0.021	-0.025 ± 0.041	-0.0245 ± 0.025	-0.0125 ± 0.018	-0.0175 ± 0.021	-0.004 ± 0.0028	-0.002 ± 0.0057
